{"source": "patent US12109224B2", "about": "“USB1 directed regulation of miRNAs related hematopoietic differentiation and affected in multiple forms of leukemia” (The Regents of the University of Colorado, a body corporate, priority 2020, dated 2024)", "type_in_all_cases": "cell-based, human", "key": {"USB1 mutant cells [1]": {"tested_on": "USB1 mutant cells", "experiment": "miRNA levels by qRT-PCR in USB1 mutant cells", "conditions": "normalized to 5s rRNA; RG7834 (104) vs DMSO; FIG. 4A"}, "[2]": {"tested_on": "USB1 c.531delA CD34+/CD45+ cells", "experiment": "Flow cytometry of hematopoietic CD34+/CD45+ progenitor cells", "conditions": "RG7834 0.5 μM; FIG. 10B", "method": "(§1) Hematopoietic differentiation: Definitive hematopoietic differentiation from hESCs was performed as previously described (14). Briefly, hESCs were cultured on Matrigel (BD Bioscience) for 1 day to deplete MEFs. On Day 0, cells were dissociated with 0.05% trypsin (Gibco) for 1 min and incubated with serumfree media [SFD: IMDM supplemented with 25% Hams F12, 0.05% BSA, 1× B27 supplement (Gibco), 0.5× N2 supplement (Gibco), 2 mM L-glutamine (Gibco), 50 μg/ml ascorbic acid (Gibco), 4×10−4 M monothioglycerol (Millipore Sigma), and 150 μg/ml transferrin] supplemented with 10 ng/ml BMP4 on 6 well plates coated with a 5% poly(2-hydroxyethyl methacrylate) solution (Millipore Sigma). On Day 1, one additional volume of SFD was added, containing 10 ng/ml BMP4 and 5 ng/ml bFGF. On Day 2, media was changed to fresh SFD supplemented with 10 ng/ml BMP4, 5 ng/ml bFGF, 3 μM CHIR99021, and 6 μM SB-431542. On Day 3, media was changed to StemPro-34 media [SP-34: StemPro-34 supplemented with 2 mM L-glutamine (Gibco), 1 mM ascorbic acid (Gibco), 4×10−4M monothioglycerol, 150 μg/ml transferrin] supplemented with 15 ng/ml VEGF and 5 ng/ml bFGF. On Day 6, one additional volume of SP-34 supplemented with 15 ng/ml VEGF, 5 ng/ml bFGF, 20 ng/ml IL-6, 50 ng/ml IGF1, 10 ng/ml IL-11, 200 ng/ml SCF, and 4 IU EPO was added. […]"}, "USB1 mutant cells [3]": {"tested_on": "USB1 mutant cells", "experiment": "Colony forming culture (CFC) assay of definitive hematopoietic progenitors", "conditions": "chemical inhibition of PAPD5; RG7834 0.5 μM vs DMSO; FIG. 4E", "method": "as §1"}, "USB1 mutant cells [4]": {"tested_on": "USB1 mutant cells", "experiment": "Flow cytometry following neutrophil differentiation", "conditions": "CD45+CD14-CD11b+CD16 cells; FIG. 4F", "method": "Flow cytometry and Cell sorting: Flow cytometry analysis was performed using the BD LSR Fortessa and FACS sorting by BD FACS Aria II at the Department of Pathology & Immunology Flow Cytometry Core at Washington University in St. Louis. The antibodies were used as follows; KDR (clone 89106), CD235a-APC (clone HIR2), CD34-APC (clone 8G12), CD34-PE-Cy7 (clone 4H11), CD43-PE or -FITC (clone 1G10), CD73-PE (clone AD2), CD184-APC (clone 12G5), CD45-PE (clone HI30), CD14-PE Cy7 (clone MφP9), CD15-BV421 (W6D3), CD66b-FITC (clone G10F5). All antibodies were purchased from BD Biosciences, but CD15 and CD66b were obtained from BioLegend. For cell cycle analysis, Click-iT EdU Alexa Fluor 488 kit (Life Technologies) was used following manufacturer's instructions."}, "[5]": {"tested_on": "undifferentiated USB1 mutant cells", "experiment": "3′ end sequencing of miR-125a-5p in undifferentiated USB1 mutant cells", "conditions": "RG7834 1 μM, FIG. 4B", "method": "3′ end library preparation and analysis: 3′ end libraries were prepared as previously described (23, 41). Briefly, 30 ng of DNA-free rRNA-depleted RNA was treated with Antarctic Phosphatase (NEB), and two RNA appendices containing a unique barcode were ligated to equal amount of the input RNA using T4 RNA Ligase I (NEB). Reactions were cleaned up using RNA clean & concentrator kit (Zymo Research) and cDNA was prepared using an RNA appendix-specific primer and Superscript III RT (Invitrogen). cDNA was used as a template for […] using a miRNA-specific reverse primer containing a barcode, a universal primer and Phusion HF DNA polymerase (NEB). RACE products were separated on a 1% Agarose TAE gel, 100-180 bp DNA fragments were excised and DNA was eluted. Illumina-compatible libraries were prepared by amplifying RACE product using Illumina primers, and sequenced on a HiSeq lane (Illumina) using the 2×150 kit. Libraries were demultiplexed and unique reads aligning to the exact miRNA sequence were quantified. miRNA 3′ ends were obtained from miRbase v22."}}, "data": [{"smiles": "COCCCOc1cc2c(cc1OC)-c1cc(=O)c(C(=O)O)cn1[C@H](C(C)C)C2", "note": "[RG7834]", "values": [{"measurement": "levels of miRNAs that were reduced in USB1 mutant cells", "setting": "USB1 mutant cells [1]", "value": "rescued"}, {"measurement": "hematopoietic CD34+/CD45+ progenitor cells", "setting": "[2]", "value": "increase"}, {"measurement": "colony-formation potential in USB1 mutants", "setting": "USB1 mutant cells [3]", "value": "rescued"}, {"measurement": "neutrophil formation in USB1 mutant cells", "setting": "USB1 mutant cells [4]", "value": "improved"}, {"measurement": "non-adenylated form of miR-125a-5p", "setting": "[5]", "value": "increase"}, {"measurement": "oligoadenylated miR-125a-5p", "setting": "[5]", "value": "decrease"}]}]}
